Assay results as given in patent US20220380378A1 (ESSA Pharma, Inc., priority 2021, published 2022).
pIC50: −log10 of the molar value. Like-named read-outs stand apart in the source and are kept apart here.

Tests used:
androgen receptor (AR) [1] = molecular target: T1, androgen receptor (AR) (Homo sapiens, UniProt P10275, T878A); experiment: Androgen-induced PSA (6.1 kb)-luciferase reporter assay in LNCaP cells (R1881 1 nM); type: cell-based; design: LNCaP cells were transiently transfected with the PSA (6.1 kb)-luciferase reporter for 24 h; endogenous in cells; host or cells: LNCaP; settings: 24 h, read-out: PSA-Luc IC50 Range
T1 sequence (P10275 1-920 T878A): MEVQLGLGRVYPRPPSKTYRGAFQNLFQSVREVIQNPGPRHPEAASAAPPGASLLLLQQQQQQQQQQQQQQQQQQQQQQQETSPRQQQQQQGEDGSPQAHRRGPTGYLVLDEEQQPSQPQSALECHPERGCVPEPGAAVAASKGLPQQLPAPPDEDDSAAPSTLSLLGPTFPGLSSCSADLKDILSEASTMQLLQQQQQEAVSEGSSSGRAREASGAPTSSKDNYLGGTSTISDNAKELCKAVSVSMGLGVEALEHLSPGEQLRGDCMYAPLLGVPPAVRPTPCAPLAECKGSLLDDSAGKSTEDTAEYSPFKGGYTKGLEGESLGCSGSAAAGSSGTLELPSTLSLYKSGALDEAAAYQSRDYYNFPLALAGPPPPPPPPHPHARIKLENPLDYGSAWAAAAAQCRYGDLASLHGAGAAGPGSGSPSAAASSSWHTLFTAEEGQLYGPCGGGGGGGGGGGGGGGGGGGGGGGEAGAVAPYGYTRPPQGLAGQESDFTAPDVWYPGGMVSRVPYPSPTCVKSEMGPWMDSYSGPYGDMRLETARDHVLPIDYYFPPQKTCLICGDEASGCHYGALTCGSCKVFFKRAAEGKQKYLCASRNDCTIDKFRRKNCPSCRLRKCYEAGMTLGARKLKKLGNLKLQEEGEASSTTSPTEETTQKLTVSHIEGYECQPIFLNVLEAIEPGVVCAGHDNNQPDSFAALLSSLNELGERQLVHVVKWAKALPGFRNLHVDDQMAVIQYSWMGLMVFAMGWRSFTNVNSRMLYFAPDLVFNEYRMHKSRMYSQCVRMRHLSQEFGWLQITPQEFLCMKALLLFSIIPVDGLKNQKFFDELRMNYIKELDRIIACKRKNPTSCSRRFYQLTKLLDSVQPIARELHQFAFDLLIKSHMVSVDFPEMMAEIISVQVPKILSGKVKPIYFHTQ
Method: The PSA (6.1 kb)-luciferase reporter contains functional AREs (androgen response elements) to which AR binds in response to androgen to induce luciferase activity. LNCaP cells were transiently transfected with the PSA (6.1 kb)-luciferase reporter for 24 h, and then pretreated with vehicle (DMSO) or indicated concentration of representative compounds for one hour prior to the addition of synthetic androgen, R1881 (1 nM). After 24 h of incubation with R1881, the cells were harvested, and relative luciferase activities were determined (FIG. 1). To determine the IC50, treatments were normalized to vehicle control activity induced by R1881 (Table 2).
Luciferase Assay: Cells were lysed using Passive Lysis Buffer (Promega) and then collected into V-bottom 96-well tissue culture plates. Lysates were centrifuged at 4° C. for 5 minutes at 3000 rpm. To measure luminescence of LNCaP cell lysates the Firefly Luciferase Assay System (Promega) was employed, according to manufacturer's protocol. Relative luminescence units (RLU) in cell lysates were detected for 10 seconds using Promega GloMax-Multi Detection Luminometer (Promega). Values were normalized to protein content. GraphPad Prism graphing software was used to calculate IC50 values.
Statistical analyses were performed using GraphPad Prism (Version 6.01 for Windows; La Jolla, Calif., USA). […]

[2] = Microsomal stability assay, liver microsome half-life (human); type: in vitro ADME; settings: pH 7.4; human liver microsomes 0.5 mg/mL, 1 μM compound, 37° C.; read-out: Liver microsome T1/2 Human
Method in brief: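 Test compound at 1 μM incubated at 37 °C with 0.5 mg/mL liver microsomal protein plus 1 mM NADPH and/or 1 mM UDPGA (with alamethicin) in 100 mM potassium phosphate pH 7.4, 3 mM MgCl2. Sampled at 0, 15, 30, 60 min, acetonitrile quench, LC/MS/MS; t½ from parent depletion relative to 0 min.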

[3] = Microsomal stability assay, liver microsome half-life (mouse); type: in vitro ADME; settings: pH 7.4; mouse liver microsomes 0.5 mg/mL, 1 μM compound, 37° C.; read-out: Liver microsome T1/2 Mouse
From the text: (§1) Microsomal Stability Assay: Microsomal stability assay is a widely used in vitro model to characterize the metabolic conversion by phase I enzymes, such as cytochrome P450 (CYP) enzymes. Since metabolism is known to be highly variable in different species, microsomal stability assay is commonly run in multiple species. Metabolic stability of testing compound can be evaluated using human, rat, mouse, or other animal liver or intestine microsomes to predict intrinsic clearance.
(§2) The assay was carried out in 96-well microtiter plates at 37° C. Reaction mixtures (25 μL) contained a final concentration of 1 μM test compound, 0.5 mg/mL liver microsomes protein, and 1 mM NADPH and/or 1 mM UDPGA (with alamethicin) in 100 mM potassium phosphate, pH 7.4 buffer with 3 mM MgCl2. The incubation was done with N=1, but duplicate incubation at each time point can be prepared if necessary. At each of the time points (for example, 0, 15, 30, and 60 minutes), 150 μL of quench solution (100% acetonitrile with 0.1% formic acid) with internal standard was transferred to each well. Besides the zero minute controls, mixtures containing the same components except the NADPH can also be prepared as the negative control. Verapamil was included as a positive control to verify assay performance. Plates were sealed, vortexed, and centrifuged at 4° C. for 15 minutes at 4000 rpm. The supernatant is transferred to fresh plates for LC/MS/MS analysis.
(§3) Summarized conditions: [Compound]=1 μM, [LM]=0.5 mg/mL, [NADPH]=1 mM and/or [UDPGA]=1 mM, Buffer=100 mM Potassium Phosphate, pH 7.4 with 3 mM MgCl2, Time=0, 15, 30, and 60 min, and Temperature=37° C.
(§4) All samples were analyzed on LC/MS/MS using an AB Sciex API 4000 instrument, coupled to a Shimadzu LC-20AD LC Pump system. Analytical samples were separated using a Waters Atlantis T3 dC18 reverse phase HPLC column (20 mm×2.1 mm) at a flow rate of 0.5 mL/min. The mobile phase consisted of 0.1% formic acid in water (solvent A) and 0.1% formic acid in 100% acetonitrile (solvent B).
(§5) The extent of metabolism is calculated as the disappearance of the test compound, compared to the 0-min time incubation. Initial rates are calculated for the compound concentration and used to determine half-life (t½). […]

[4] = Microsomal stability assay, liver microsome half-life (rat); type: in vitro ADME; settings: pH 7.4; rat liver microsomes 0.5 mg/mL, 1 μM compound, 37° C.; read-out: Liver microsome T1/2 Rat
From the text: as §1, §2, §3, §4, §5

[5] = Microsomal stability assay, liver microsome half-life (dog); type: in vitro ADME; settings: pH 7.4; dog liver microsomes 0.5 mg/mL, 1 μM compound, 37° C.; read-out: Liver microsome T1/2 Dog
From the text: as §1, §2, §3, §4
(§6) The extent of metabolism is calculated as the disappearance of the test compound, compared to the 0-min time incubation. Initial rates are calculated for the compound concentration and used to determine half-life (t½).

[6] = Microsomal stability assay, liver microsome half-life (monkey); type: in vitro ADME; settings: pH 7.4; monkey liver microsomes 0.5 mg/mL, 1 μM compound, 37° C.; read-out: Liver microsome T1/2 Monkey
From the text: as §1, §2, §3, §4, §6

androgen receptor (AR) [7] = molecular target: T1, androgen receptor (AR); experiment: Androgen-induced PSA (6.1 kb)-luciferase reporter assay in LNCaP cells (R1881 1 nM); type: cell-based; design: endogenous in cells; host or cells: LNCaP; settings: 24 h, read-out: PSA-Luc IC50 Range
Method in brief: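 Compound or vehicle was added 1 h before 1 nM R1881 to LNCaP cells carrying a transiently transfected (24 h) PSA (6.1 kb)-luciferase reporter. After 24 h androgen exposure, lysate luminescence was normalized to protein and expressed versus vehicle plus R1881 for IC50.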

pIC50 (androgen receptor (AR) [1])	half-life at 1 μM [2] [h]	half-life at 1 μM [3] [h]	half-life at 1 μM [4] [h]	half-life at 1 μM [5] [h]	half-life at 1 μM [6] [h]	pIC50 (androgen receptor (AR) [7])	Compound
> 6.30							CS(=O)(=O)Nc1nccc(COc2ccc3c(ncn3-c3cc(Cl)c(OCCCl)c(C#N)c3)c2Cl)n1 [Compound A46]
	1.15	> 2	> 2	> 2	1.13	> 6.30	CS(=O)(=O)NC12CC(COc3ccc4c(ccn4-c4cc(Cl)c(OCCCl)c(C#N)c4)c3)(C1)C2 [Compound A57, N-(3-(((1-(3-chloro-4-(2-chloroethoxy)-5-cyanophenyl)-1H-indol-5-yl)oxy)methyl)bicyclo[1.1.1]pentan-1-yl)methanesulfonamide]
	> 2	> 2	0.95	0.733	0.583	5.70 to 6.30	CS(=O)(=O)NC1CN(CCc2ccc3c(ccn3-c3cc(Cl)c(OCCCl)c(C#N)c3)c2)C1 [Compound A126, N-(1-(2-(1-(3-chloro-4-(2-chloroethoxy)-5-cyanophenyl)-1H-indol-5-yl)ethyl)azetidin-3-yl)methanesulfonamide]
